In PubChem BioAssay AID180 (DTP/NCI, 2004) one finds T/C data, which are given here for ten compounds.

Several values for one entry are separate records, joined by “and”; a condition that tells them apart may be missing. Equal values may be shown once.

By T/C is commonly meant the result in the treated group divided by that in the control group, in per cent.

In the assay the test system is BDF1 mice, Adenocarcinoma 755 s.c., tumor weight T/C. Nature of the assay: NCI In Vivo Anticancer Drug Screen. Data for tumor model Adenocarcinoma 755 (subcutaneous) in B6D2F1 (BDF1) mice. Particulars: endpoint: mean tumor weight, higher = larger tumour. The method, boiled down: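 Compound activity was tested in mice carrying transplanted tumors. Survival or tumor size was measured, and each value is the treated-group measurement divided by that of the vehicle-treated control group (T/C).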

The mark [1] stands for this setting: dose: 3.1 mg/kg/injection, schedule: Q01DX011 (ip), vehicle: methylcellulose (MC).
[2] abbreviates: dose: 6.2 mg/kg/injection, schedule: Q01DX011 (ip), vehicle: methylcellulose (MC).
The mark [3] stands for this setting: dose: 12.5 mg/kg/injection, schedule: Q01DX011 (ip), vehicle: methylcellulose (MC).
[4] abbreviates: dose: 25.0 mg/kg/injection, schedule: Q01DX011 (ip), vehicle: methylcellulose (MC).
Setting [5] is: dose: 5.0 mg/kg/injection, schedule: Q01DX011 (ip), vehicle: saline.
Setting [6] is: dose: 10.0 mg/kg/injection, schedule: Q01DX011 (ip), vehicle: saline.

Take `CCOC(=O)CN=NNc1nc[nH]c1C(N)=O`: the T/C runs as follows: (dose: 56.0 mg/kg/injection, schedule: Q01DX011 (ip), vehicle: carboxymethylcellulose (CMC)) 58 % of control; (dose: 112.0 mg/kg/injection, schedule: Q01DX011 (ip), vehicle: carboxymethylcellulose (CMC)) 106 % of control; (dose: 175.0 mg/kg/injection, schedule: Q01DX011 (ip), vehicle: carboxymethylcellulose (CMC)) 81 % of control; (dose: 225.0 mg/kg/injection, schedule: Q01DX011 (ip), vehicle: carboxymethylcellulose (CMC)) 27 % of control; (dose: 350.0 mg/kg/injection, schedule: Q01DX011 (ip), vehicle: carboxymethylcellulose (CMC)) 58 % of control.

Take `Nc1nc(N)c(N)c(N)n1`: the T/C is, setting by setting: (dose: 50.0 mg/kg/injection, schedule: Q01DX011 (ip), vehicle: saline) 82 % of control; (dose: 200.0 mg/kg/injection, schedule: Q01DX011 (ip), vehicle: saline) 92 % of control; (dose: 400.0 mg/kg/injection, schedule: Q01DX011 (ip), vehicle: saline) 90 % of control.

Consider `NS(=O)(=O)c1ncnc2nc[nH]c12`, for which the T/C is, setting by setting: under setting [1], 105 % of control; under setting [2], 78 % of control; under setting [3], 15 % of control; under setting [4], 3 % of control and 9 % of control.

Take `CCCCn1cnc2c(SSc3ncnc4c3ncn4CCCC)ncnc21`: the T/C reads like this: (dose: 0.5 mg/kg/injection, schedule: Q01DX011 (ip), vehicle: carboxymethylcellulose (CMC)) 94 % of control; (dose: 1.0 mg/kg/injection, schedule: Q01DX011 (ip), vehicle: carboxymethylcellulose (CMC)) 104 % of control; (dose: 2.0 mg/kg/injection, schedule: Q01DX011 (ip), vehicle: carboxymethylcellulose (CMC)) 101 % of control; (dose: 4.0 mg/kg/injection, schedule: Q01DX011 (ip), vehicle: carboxymethylcellulose (CMC)) 77 % of control; (dose: 7.5 mg/kg/injection, schedule: Q01DX011 (ip), vehicle: other) 32 % of control; (dose: 8.0 mg/kg/injection, schedule: Q01DX011 (ip), vehicle: carboxymethylcellulose (CMC)) 19 % of control. In addition, the T/C was 23 % of control (dose: 15.0 mg/kg/injection, schedule: Q01DX011 (ip), vehicle: other); 13 % of control (dose: 16.0 mg/kg/injection, schedule: Q01DX011 (ip), vehicle: carboxymethylcellulose (CMC)); 1 % of control (dose: 30.0 mg/kg/injection, schedule: Q01DX011 (ip), vehicle: other); 6 % of control (dose: 31.0 mg/kg/injection, schedule: Q01DX011 (ip), vehicle: carboxymethylcellulose (CMC)); 5 % of control (dose: 62.0 mg/kg/injection, schedule: Q01DX011 (ip), vehicle: carboxymethylcellulose (CMC)).

`Cn1cnc([N+](=O)[O-])c1Sc1nc(N)nc2nc[nH]c12`: the T/C is 76 % of control (dose: 0.04 mg/kg/injection, schedule: Q01DX011 (ip), vehicle: alkali diluted with saline); 84 % of control (dose: 0.07 mg/kg/injection, schedule: Q01DX011 (ip), vehicle: methylcellulose (MC)); 72 % of control (dose: 0.08 mg/kg/injection, schedule: Q01DX011 (ip), vehicle: alkali diluted with saline); 86 % of control (dose: 0.13 mg/kg/injection, schedule: Q01DX011 (ip), vehicle: methylcellulose (MC)); 102 % of control (dose: 0.16 mg/kg/injection, schedule: Q01DX011 (ip), vehicle: alkali diluted with saline); 30 % of control (dose: 0.2 mg/kg/injection, schedule: Q01DX011 (ip), vehicle: methylcellulose (MC)). In addition, the T/C was 29 % of control (dose: 0.25 mg/kg/injection, schedule: Q01DX011 (ip), vehicle: distilled water + alcohol); 65 % of control (dose: 0.25 mg/kg/injection, schedule: Q01DX011 (ip), vehicle: methylcellulose (MC)); 82 % of control (dose: 0.32 mg/kg/injection, schedule: Q01DX011 (ip), vehicle: alkali diluted with saline); 102 % of control (dose: 0.32 mg/kg/injection, schedule: Q01DX011 (ip), vehicle: saline); 8 % of control (dose: 0.39 mg/kg/injection, schedule: Q01DX011 (ip), vehicle: methylcellulose (MC)); 18 % of control (dose: 0.52 mg/kg/injection, schedule: Q01DX011 (ip), vehicle: distilled water + alcohol). The T/C reads like this: (dose: 0.62 mg/kg/injection, schedule: Q01DX011 (oral), vehicle: saline) 89 % of control; (dose: 0.63 mg/kg/injection, schedule: Q01DX011 (ip), vehicle: alkali diluted with saline) 41 % of control; (dose: 0.63 mg/kg/injection, schedule: Q01DX011 (ip), vehicle: saline) 46 % of control; (dose: 0.78 mg/kg/injection, schedule: Q01DX011 (ip), vehicle: methylcellulose (MC)) 7 % of control; (dose: 1.0 mg/kg/injection, schedule: Q01DX011 (ip), vehicle: methylcellulose (MC)) 27 % of control; (dose: 1.05 mg/kg/injection, schedule: Q01DX011 (ip), vehicle: distilled water + alcohol) 5 % of control. Further, the T/C was 2 % of control (dose: 1.25 mg/kg/injection, schedule: Q01DX011 (ip), vehicle: alkali diluted with saline); 4 % of control (dose: 1.25 mg/kg/injection, schedule: Q01DX011 (ip), vehicle: saline); 36 % of control (dose: 1.25 mg/kg/injection, schedule: Q01DX011 (oral), vehicle: saline); 5 % of control (dose: 1.56 mg/kg/injection, schedule: Q01DX011 (ip), vehicle: methylcellulose (MC)); 6 % of control (dose: 2.08 mg/kg/injection, schedule: Q01DX011 (ip), vehicle: distilled water + alcohol); 1 % of control (dose: 2.5 mg/kg/injection, schedule: Q01DX011 (ip), vehicle: alkali diluted with saline). The T/C (dose: 2.5 mg/kg/injection, schedule: Q01DX011 (ip), vehicle: methylcellulose (MC)) was 4 % of control; the T/C (dose: 2.5 mg/kg/injection, schedule: Q01DX011 (ip), vehicle: saline) was 3 % of control; the T/C (dose: 2.5 mg/kg/injection, schedule: Q01DX011 (oral), vehicle: saline) was 8 % of control; the T/C (dose: 3.12 mg/kg/injection, schedule: Q01DX011 (ip), vehicle: methylcellulose (MC)) was 2 % of control; the T/C (dose: 4.19 mg/kg/injection, schedule: Q01DX011 (ip), vehicle: distilled water + alcohol) was 2 % of control; the T/C under setting [5] was 1 % of control. The T/C is, setting by setting: (dose: 5.0 mg/kg/injection, schedule: Q01DX011 (oral), vehicle: saline) 5 % of control; (dose: 6.25 mg/kg/injection, schedule: Q01DX011 (ip), vehicle: methylcellulose (MC)) 2 % of control; under setting [6], 1 % of control; under setting [3], 1 % of control.

In the case of `C[N+]1(C)CCN(C(=O)CCCl)CC1`, the T/C runs as follows: (dose: 3.1 mg/kg/injection, schedule: Q01DX011 (ip), vehicle: other) 47 % of control; (dose: 6.2 mg/kg/injection, schedule: Q01DX011 (ip), vehicle: other) 93 % of control; (dose: 12.5 mg/kg/injection, schedule: Q01DX011 (ip), vehicle: other) 66 % of control.

In the case of `OCCNc1ncnc2c1ncn2C1OC(CO)C(O)C1O` (stereo unspecified), the T/C under setting [4] is 55 % of control; the T/C (dose: 50.0 mg/kg/injection, schedule: Q01DX011 (ip), vehicle: methylcellulose (MC)) is 49 % of control; the T/C (dose: 75.0 mg/kg/injection, schedule: Q01DX011 (ip), vehicle: methylcellulose (MC)) is 17 % of control; the T/C (dose: 100.0 mg/kg/injection, schedule: Q01DX011 (ip), vehicle: methylcellulose (MC)) was 27 % of control; the T/C (dose: 200.0 mg/kg/injection, schedule: Q01DX011 (ip), vehicle: methylcellulose (MC)) was 7 % of control.

`CCC(=O)OCC1OC(n2cnc3c(=S)nc(N)[nH]c32)C(OC(=O)CC)C1OC(=O)CC` (stereo unspecified): the T/C was 96 % of control (dose: 1.5 mg/kg/injection, schedule: Q01DX011 (ip), vehicle: carboxymethylcellulose (CMC)); 17 % of control (dose: 3.0 mg/kg/injection, schedule: Q01DX011 (ip), vehicle: carboxymethylcellulose (CMC)); 3 % of control (dose: 6.0 mg/kg/injection, schedule: Q01DX011 (ip), vehicle: carboxymethylcellulose (CMC)); 1 % of control (dose: 12.0 mg/kg/injection, schedule: Q01DX011 (ip), vehicle: carboxymethylcellulose (CMC)).

`Nc1nc(=S)c2ncn(C3CCCC3)c2[nH]1`: the T/C runs as follows: under setting [1], 37 % of control; under setting [2], 8 % of control.

On to `Cc1ccccc1CNc1ncnc2[nH]ncc12`, for which the T/C by setting is: under setting [5], 79 % of control; under setting [6], 60 % of control; (dose: 25.0 mg/kg/injection, schedule: Q01DX011 (ip), vehicle: saline) 29 % of control; (dose: 100.0 mg/kg/injection, schedule: Q01DX011 (ip), vehicle: saline) 4 % of control; (dose: 125.0 mg/kg/injection, schedule: Q01DX011 (ip), vehicle: saline) 9 % of control.
